In article PMC5676089 (Chemical Science, 2017):

Tests used:
Settings in all cases: two-fold dilutions in MH broth, 16–18 hours at 37 °C; triplicates
[1] = tested on: P. aeruginosa ZEM1.A; test: MIC, clinical isolate; type: cell-based, Pseudomonas aeruginosa
[2] = tested on: P. aeruginosa ZEM9.A; test: MIC, clinical isolate; type: cell-based, Pseudomonas aeruginosa
[3] = tested on: P. aeruginosa PEJ2.6; test: MIC, clinical isolate; type: cell-based, Pseudomonas aeruginosa
[4] = tested on: P. aeruginosa PEJ9.1; test: MIC, clinical isolate; type: cell-based, Pseudomonas aeruginosa
[5] = tested on: S. aureus Newman (MSSA); test: MIC; type: cell-based, Staphylococcus aureus
[6] = tested on: S. aureus COL (MRSA); test: MIC; type: cell-based, Staphylococcus aureus
[7] = tested on: A. baumannii 19606; test: MIC; type: cell-based, Acinetobacter baumannii
[8] = tested on: E. coli (W3110); test: MIC; type: cell-based, Escherichia coli
[9] = tested on: K. pneumoniae s.; test: MIC; type: cell-based, Klebsiella pneumoniae

## Polymyxin B
[1]
  MIC ZEM1.A: 0.125 μg mL^–1
[2]
  MIC ZEM9.A: 4 μg mL^–1
[3]
  MIC PEJ2.6: 0.5 μg mL^–1
[4]
  MIC PEJ9.1: 0.5 μg mL^–1
[5]
  MIC S. aureus Newman (MSSA): >64 μg mL^–1
[6]
  MIC S. aureus COL (MRSA): >64 μg mL^–1
[7]
  MIC A. baumannii 19606: 0.125 μg mL^–1
[8]
  MIC E. coli (W3110): 0.125 μg mL^–1
[9]
  MIC K. pneumoniae s.: 1 μg mL^–1
